{"source": "patent US20030135023A1", "about": "“Peptide structures useful for competitive modulation of dipeptidyl peptidase IV catalysis” (priority 2001, published 2003)", "key": {"[1]": {"target": "T1, PEPT2 (Homo sapiens, UniProt Q16348)", "T1 construct": "expressed in transfected cells; host or cells: transgenic yeast cells", "T1 sequence (Q16348 1-729)": "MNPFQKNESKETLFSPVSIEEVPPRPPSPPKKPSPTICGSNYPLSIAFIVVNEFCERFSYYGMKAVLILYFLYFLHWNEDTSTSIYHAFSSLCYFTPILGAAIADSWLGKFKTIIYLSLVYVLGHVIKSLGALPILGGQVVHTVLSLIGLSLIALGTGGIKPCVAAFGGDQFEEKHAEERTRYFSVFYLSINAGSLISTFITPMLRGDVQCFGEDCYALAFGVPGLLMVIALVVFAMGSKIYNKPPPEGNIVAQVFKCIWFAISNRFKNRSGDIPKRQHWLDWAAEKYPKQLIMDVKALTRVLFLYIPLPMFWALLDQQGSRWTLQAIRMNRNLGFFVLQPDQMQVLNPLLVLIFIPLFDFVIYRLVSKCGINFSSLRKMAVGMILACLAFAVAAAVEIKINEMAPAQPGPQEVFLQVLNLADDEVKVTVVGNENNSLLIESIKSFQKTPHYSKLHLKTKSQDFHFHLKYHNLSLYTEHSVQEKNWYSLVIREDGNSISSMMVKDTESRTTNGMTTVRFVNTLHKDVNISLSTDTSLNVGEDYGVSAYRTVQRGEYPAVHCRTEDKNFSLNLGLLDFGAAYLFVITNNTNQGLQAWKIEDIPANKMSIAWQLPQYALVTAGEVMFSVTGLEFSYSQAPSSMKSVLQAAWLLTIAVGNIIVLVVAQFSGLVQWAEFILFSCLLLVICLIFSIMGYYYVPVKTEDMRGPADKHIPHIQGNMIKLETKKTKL", "assay": "Competition assay with transgenic yeast cells, displacement of radiolabeled tracer dipeptide, PEPT2", "type": "binding, mammalian", "text": "(§1) For the analysis o the interaction of the inhibitors of prolyl-specific proteases with the mammalian peptide transporters two assay systems were used. First, all test compounds were submitted to the competition assay with transgenic yeast cells to determine the dose-dependent displacement (EC50 values) of the radiolabeled tracer dipepitde from the substrate binding site. […] As the level of functional expression varies in oocytes, each test compound was compared in the same oocyte with the current elicited by 5 mM of the dipeptide glycyl-L-glutamine (Gly-Gln). Currents of test compounds are therefore given relative to that by Gly-Gln as %I Gly-Gin, expressed as residual uptake in table 10."}, "[2]": {"target": "T2, purified porcine DP IV (Sus scrofa, UniProt P22411)", "T2 sequence (P22411 whole entry)": "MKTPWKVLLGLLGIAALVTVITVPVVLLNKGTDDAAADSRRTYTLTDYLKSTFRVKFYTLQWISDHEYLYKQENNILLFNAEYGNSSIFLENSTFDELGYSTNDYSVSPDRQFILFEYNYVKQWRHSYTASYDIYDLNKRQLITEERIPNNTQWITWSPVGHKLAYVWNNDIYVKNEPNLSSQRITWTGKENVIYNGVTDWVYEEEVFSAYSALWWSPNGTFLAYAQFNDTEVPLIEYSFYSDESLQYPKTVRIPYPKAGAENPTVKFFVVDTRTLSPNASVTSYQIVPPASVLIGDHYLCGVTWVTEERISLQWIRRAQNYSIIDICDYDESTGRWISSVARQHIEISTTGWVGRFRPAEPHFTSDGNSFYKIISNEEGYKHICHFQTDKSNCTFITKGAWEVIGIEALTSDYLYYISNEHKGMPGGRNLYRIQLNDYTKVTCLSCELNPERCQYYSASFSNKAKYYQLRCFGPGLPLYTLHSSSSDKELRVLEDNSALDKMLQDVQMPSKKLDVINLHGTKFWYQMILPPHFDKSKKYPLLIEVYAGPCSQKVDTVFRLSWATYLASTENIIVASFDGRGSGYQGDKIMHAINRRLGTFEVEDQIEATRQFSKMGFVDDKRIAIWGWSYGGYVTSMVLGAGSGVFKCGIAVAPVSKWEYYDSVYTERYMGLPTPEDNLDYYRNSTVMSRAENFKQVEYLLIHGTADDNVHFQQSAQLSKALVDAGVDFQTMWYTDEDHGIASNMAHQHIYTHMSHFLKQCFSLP", "assay": "Determination of Ki-values, Gly-Pro-pNA cleavage by DP IV", "type": "biochemical", "conditions": "Gly-Pro-pNA 0.05-0.4 mM", "procedure": "(§2) 100 μl inhibitor stock solution were mixed with 100 μl buffer (HEPES pH 7.6) and 50 μl substrate (Gly-Pro-pNA, final concentration 0.4 mM) and preincubated at 30° C. Reaction was started by addition of 20 μl purified porcine DP IV. Formation of the product pNA was measured at 405 nm over 10 min using the HTS 7000 Plus plate reader (Perkin Elmer) and slopes were calculated. The final inhibitor concentrations ranged between 1 mM and 30 nM.\nCalculations were performed using the GraFit Software."}, "[3]": {"target": "T2, purified porcine DP IV", "assay": "Determination of IC50-values, Gly-Pro-pNA cleavage by DP IV", "type": "biochemical", "procedure": "as §2\nFor calculation of IC50-values GraFit 4.0.13 (Erithacus Software) was used."}, "[4]": {"target": "T3, PEPT1 (Homo sapiens, UniProt P46059)", "T3 construct": "expressed in transfected cells; host or cells: transgenic yeast cells", "T3 sequence (P46059 1-708)": "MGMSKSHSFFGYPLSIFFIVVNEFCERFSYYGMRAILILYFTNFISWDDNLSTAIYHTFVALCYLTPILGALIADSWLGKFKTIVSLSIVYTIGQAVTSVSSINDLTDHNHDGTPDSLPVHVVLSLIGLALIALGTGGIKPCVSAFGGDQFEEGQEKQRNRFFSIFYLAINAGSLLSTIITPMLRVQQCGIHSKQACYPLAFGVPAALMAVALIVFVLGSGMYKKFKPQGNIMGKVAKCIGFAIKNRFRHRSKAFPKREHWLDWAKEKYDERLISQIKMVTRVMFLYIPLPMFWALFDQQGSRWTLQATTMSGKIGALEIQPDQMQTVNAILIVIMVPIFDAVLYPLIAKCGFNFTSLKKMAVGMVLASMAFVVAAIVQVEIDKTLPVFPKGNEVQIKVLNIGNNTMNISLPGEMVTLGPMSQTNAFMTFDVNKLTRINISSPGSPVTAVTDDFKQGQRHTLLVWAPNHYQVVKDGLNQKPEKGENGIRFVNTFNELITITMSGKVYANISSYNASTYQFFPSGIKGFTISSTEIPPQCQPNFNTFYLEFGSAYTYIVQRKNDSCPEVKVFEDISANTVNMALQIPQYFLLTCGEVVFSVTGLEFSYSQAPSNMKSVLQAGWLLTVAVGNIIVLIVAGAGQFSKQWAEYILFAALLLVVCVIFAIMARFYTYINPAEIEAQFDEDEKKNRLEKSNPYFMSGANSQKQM", "assay": "Competition assay with transgenic yeast cells, displacement of radiolabeled tracer dipeptide, PEPT1", "type": "binding, mammalian", "text": "as §1"}, "[5]": {"target": "T1, PEPT2", "assay": "Electrophysiological analysis of transport currents in Xenopus oocytes expressing PEPT2", "type": "cell-based, mammalian", "conditions": "transport current in Xenopus oocytes relative to 5 mM Gly-Gln", "text": "as §1"}, "[6]": {"target": "T3, PEPT1", "assay": "Electrophysiological analysis of transport currents in Xenopus oocytes expressing PEPT1", "type": "cell-based, mammalian", "conditions": "transport current in Xenopus oocytes relative to 5 mM Gly-Gln", "text": "as §1"}, "[7]": {"target": "T4, plasma DP IV (Rattus norvegicus, UniProt P14740)", "T4 construct": "The assay mixture consisted of 80 μl reagent and 20 μl plasma; from tissue; host or cells: plasma of Wistar rats", "T4 sequence (P14740 37-767 limits assumed)": "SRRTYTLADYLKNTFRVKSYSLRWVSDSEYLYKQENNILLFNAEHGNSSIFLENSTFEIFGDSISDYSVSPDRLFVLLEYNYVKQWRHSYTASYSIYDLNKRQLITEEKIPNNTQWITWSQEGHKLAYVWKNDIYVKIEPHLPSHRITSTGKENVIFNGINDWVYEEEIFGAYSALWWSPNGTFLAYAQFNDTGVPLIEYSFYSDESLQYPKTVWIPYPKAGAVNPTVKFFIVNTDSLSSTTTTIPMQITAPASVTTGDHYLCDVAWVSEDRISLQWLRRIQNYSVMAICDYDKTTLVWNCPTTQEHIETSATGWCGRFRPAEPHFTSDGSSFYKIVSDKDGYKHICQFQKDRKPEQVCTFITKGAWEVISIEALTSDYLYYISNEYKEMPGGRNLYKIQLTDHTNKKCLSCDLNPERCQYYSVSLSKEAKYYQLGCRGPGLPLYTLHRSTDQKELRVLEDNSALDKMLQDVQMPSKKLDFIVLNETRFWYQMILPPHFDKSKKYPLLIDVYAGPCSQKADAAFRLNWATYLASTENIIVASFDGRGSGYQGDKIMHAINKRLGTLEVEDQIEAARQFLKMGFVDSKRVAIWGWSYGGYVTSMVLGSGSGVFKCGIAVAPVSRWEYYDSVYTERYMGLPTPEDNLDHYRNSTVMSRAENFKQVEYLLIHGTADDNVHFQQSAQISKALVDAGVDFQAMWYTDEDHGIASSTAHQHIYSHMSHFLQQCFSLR", "assay": "Plasma DP IV activity after intravasal and oral administration in Wistar rats", "type": "in vivo", "procedure": "Rats with intact catheter function were given the test substances intravasal (intraarterial) or oral, respectively, in random order (N=3 Wistar rats in each group). As positive control, […]. isoleucine thiazolidine*fumarate were administered intravasal.\nAfter overnight fasting, 100 μl samples of heparinized arterial blood were collected at −30, −5, and 0 min into ice-cooled Eppendorf tubes (see below). The test substances were dissolved freshly in 1.0 ml saline (0.154 mol/l) and were given at 0 min either oral via a feeding tube ([…], 75 mm; Fine Science Tools, Heidelberg, Germany) or intravasal. For the intravasal route, the catheter was immediately flushed with 30 μl saline and an additional 1 ml of saline was given orally via the feeding tube.\nArterial blood samples were taken thereafter at 5, 10 (only in a limited number of experiments), 20, 40, 60 and 120 min from the carotid catheter of the conscious unrestrained rats and were always given into ice cooled Eppendorf tubes (Eppendorf-Netheler-Hinz, Hamburg, Germany) filled with 10 μl 1 M citrate buffer pH 3.0 for prevention of further hydrolysis of tripeptides by plasma DP IV activity. Eppendorf tubes were centrifuged immediately (12000 rpm for 2 min, Hettich Zentrifuge EBA 12, Tuttlingen; Germany): The plasma fractions were store on ice until analysis or were deeply frozen at −20 ° C. until analysis.\nPlasma DP IV activity: The assay mixture consisted of 80 μl reagent and 20 μl plasma. Kinetic measurements of the formation of the yellow product 4-nitroaniline were performed at 390 nm for 1 min at 30° C. after 2 min pre-incubation at the same temperature. The activity was expressed as arbitrary units [AU] and DP IV activity [mU/ml].\nThe absolute values of plasma DP IV activity, the relative change of plasma DP IV activity and the time and extent of maximal inhibition were calculated. Data presentation included the presentation of area under the curve (AUC), which was used for evaluation of extent of inhibition of plasma DP IV activity during the two hours of observation. AUC was calculated using the trapezoidal rule.\nTo compare relative changes of parameters under the conditions of different initial values of DP IV activity an uniform standardised mean (values) was set up at the beginning of the test (see Figures and Tables).\nStatistical evaluations were performed with Microsoft Excel® 97. All variables are presented as mean and standard deviation (SD). Treatment groups were compared by Student's t-test, within-group changes by paired t-test. Two-tailed values of p<0.05 were considered significant."}, "[8]": {"conditions": "displacement of radiolabeled tracer dipeptide, transgenic yeast cells, read-out: PEPT2 EC50"}, "[9]": {"conditions": "Gly-Pro-pNA 0.4 mM, HEPES pH 7.6, 30° C., read-out: IC50"}, "[10]": {"conditions": "displacement of radiolabeled tracer dipeptide, transgenic yeast cells, read-out: PEPT1 EC50"}}, "note": "Like-named read-outs stand apart in the source and are kept apart here. Square brackets hold non-standard residues; d marks the D form. Peptide text beside a SMILES is read from it. pY = N[C@@H](Cc1ccc(OP(=O)(O)O)cc1)C(=O)O; pS = N[C@@H](COP(=O)(O)O)C(=O)O; Cha = N[C@@H](CC1CCCCC1)C(=O)O; Tle = CC(C)(C)[C@H](N)C(=O)O", "data": [{"compound": "CC[C@H](C)[C@H](NC(=O)[C@@H]1CCCN1C(=O)[C@@H](N)CC1CCCCC1)C(=O)O", "note": "[Cha-Pro-Ile] (H-[Cha]-Pro-Ile-OH; N-terminus and C-terminus assumed)", "values": [{"measurement": "EC50", "setting": "[1]; [8]", "value": "124 ± 1", "unit": "µM"}, {"measurement": "Ki", "setting": "[2]", "value": 5.99, "unit": "µM"}, {"measurement": "IC50", "setting": "[3]; [9]", "value": 20.3, "unit": "µM"}, {"measurement": "EC50", "setting": "[4]; [10]", "value": "141 ± 9", "unit": "µM"}, {"measurement": "PEPT2 Residual uptake % IGly-Gln", "setting": "[5]", "value": 100, "unit": "% IGly-Gln"}, {"measurement": "PEPT1 Residual uptake % IGly-Gln", "setting": "[6]", "value": 90, "unit": "% IGly-Gln"}]}, {"compound": "CC[C@H](C)[C@H](NC(=O)[C@@H]1CCCN1C(=O)[C@@H](N)COP(=O)(O)O)C(=O)O", "note": "[Ser(P)-Pro-Ile] (H-[pS]-Pro-Ile-OH; N-terminus and C-terminus assumed)", "values": [{"measurement": "EC50", "setting": "[1]; [8]", "value": "4900 ± 1090", "unit": "µM"}, {"measurement": "IC50", "setting": "[3]; [9]", "value": 12000, "unit": "µM"}, {"measurement": "EC50", "setting": "[4]; [10]", "value": "4100 ± 1300", "unit": "µM"}, {"measurement": "PEPT2 Residual uptake % IGly-Gln", "setting": "[5]", "value": 0, "unit": "% IGly-Gln"}, {"measurement": "PEPT1 Residual uptake % IGly-Gln", "setting": "[6]", "value": 0, "unit": "% IGly-Gln"}]}, {"compound": "CC[C@H](C)[C@H](NC(=O)[C@@H]1CCCN1C(=O)[C@@H](N)Cc1ccc(OP(=O)(O)O)cc1)C(=O)O", "note": "[Tyr(P)-Pro-Ile] (H-[pY]-Pro-Ile-OH; N-terminus and C-terminus assumed)", "values": [{"measurement": "EC50", "setting": "[1]", "value": "390 ± 17", "unit": "µM"}, {"measurement": "IC50", "setting": "[3]", "value": 1770, "unit": "µM"}, {"measurement": "EC50", "setting": "[4]", "value": "902 ± 58", "unit": "µM"}, {"measurement": "PEPT2 Residual uptake % IGly-Gln", "setting": "[5]", "value": 0, "unit": "% IGly-Gln"}, {"measurement": "DPIV inhibition at tmax, p.o.", "setting": "[7]; Wistar rats, p.o., 100 mg/kg", "value": "no inhibition"}, {"measurement": "inhibition at 100 mg/kg", "setting": "[7]; rat, iv, read-out: DPIV inhibition at tmax, i.v.", "value": 37, "unit": "%"}, {"measurement": "PEPT1 Residual uptake % IGly-Gln", "setting": "[6]", "value": 0, "unit": "% IGly-Gln"}]}, {"compound": "CC[C@@H](C)[C@@H](NC(=O)[C@@H]1CCCN1C(=O)[C@@H](N)C(C)(C)C)C(=O)O", "note": "[t-butyl-Gly-Pro-D-Ile] (H-[Tle]-Pro-[dI]-OH; N-terminus and C-terminus assumed)", "values": [{"measurement": "EC50", "setting": "[1]; [8]", "value": "2300 ± 1120", "unit": "µM"}, {"measurement": "EC50", "setting": "[4]; [10]", "value": "10600 ± 64", "unit": "µM"}, {"measurement": "PEPT2 Residual uptake % IGly-Gln", "setting": "[5]", "value": 0, "unit": "% IGly-Gln"}, {"measurement": "PEPT1 Residual uptake % IGly-Gln", "setting": "[6]", "value": 0, "unit": "% IGly-Gln"}]}, {"compound": "CC(C)[C@@H](NC(=O)[C@@H]1CCCN1C(=O)[C@@H](N)C(C)(C)C)C(=O)O", "note": "[t-butyl-Gly-Pro-D-Val] (H-[Tle]-Pro-[dV]-OH; N-terminus and C-terminus assumed)", "values": [{"measurement": "EC50", "setting": "[1]; [8]", "value": "1500 ± 240", "unit": "µM"}, {"measurement": "Ki", "setting": "[2]", "value": 26.5, "unit": "µM"}, {"measurement": "IC50", "setting": "[3]; [9]", "value": 112, "unit": "µM"}, {"measurement": "EC50", "setting": "[4]; [10]", "value": "11100 ± 2800", "unit": "µM"}, {"measurement": "PEPT2 Residual uptake % IGly-Gln", "setting": "[5]", "value": 0, "unit": "% IGly-Gln"}, {"measurement": "PEPT1 Residual uptake % IGly-Gln", "setting": "[6]", "value": 0, "unit": "% IGly-Gln"}]}]}
